Source: US20100035871A1, “BENZOXAZINE DERIVATIVES AND USES THEREOF” (priority 2006, published 2010)

Key:
human 5-HT2C receptor [1] = molecular target: T1, human 5-HT2C receptor (Homo sapiens, UniProt P28335); test: 5-HT2C receptor-stimulated calcium mobilization (FLIPR) in CHO cells; assay type: cell-based; conditions: for Emax: CHO, read-out: 5-HT2C Function EMax (%); for EC50: calcium mobilization, CHO cells, read-out: 5-HT2C Function EC50
T1 construct: expressed in transfected cells; host or cells: CHO (Chinese Hamster Ovary) cells; membrane preparation
T1 sequence (P28335 33-458): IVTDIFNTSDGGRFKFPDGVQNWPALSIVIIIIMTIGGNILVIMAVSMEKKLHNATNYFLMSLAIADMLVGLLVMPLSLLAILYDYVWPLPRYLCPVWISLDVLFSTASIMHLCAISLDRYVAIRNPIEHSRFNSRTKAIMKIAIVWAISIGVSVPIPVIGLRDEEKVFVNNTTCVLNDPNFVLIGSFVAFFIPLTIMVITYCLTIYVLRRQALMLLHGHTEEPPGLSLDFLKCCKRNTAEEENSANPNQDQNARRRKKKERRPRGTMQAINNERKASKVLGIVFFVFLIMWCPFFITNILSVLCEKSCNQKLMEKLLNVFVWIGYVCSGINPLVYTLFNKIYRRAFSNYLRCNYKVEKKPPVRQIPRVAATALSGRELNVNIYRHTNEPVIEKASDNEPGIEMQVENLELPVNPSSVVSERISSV

human 5-HT2C receptor [2] = molecular target: T1, human 5-HT2C receptor; test: 5-HT2C receptor binding, [125I]DOI displacement, membranes of transfected CHO cells; conditions: read-out: 5-HT2C Binding Ki avg

| Emax (human 5-HT2C receptor [1]) | EC50 (human 5-HT2C receptor [1]) | Ki (human 5-HT2C receptor [2]) | Structure (SMILES) |
| --- | --- | --- | --- |
| 60% | 49 nM | 46.5 nM | COc1ccccc1-c1cccc2c1OC(CN)CN2C (racemic) [Example 1, 1-[8-(2-Methoxyphenyl)-4-methyl-3,4-dihydro-2H-1,4-benzoxazin-2-yl]methanamine] |
| 70% | 280 nM | 14.8 nM | Cc1cc(Cl)ccc1-c1cccc2c1OC(CN)CN2C (racemic) [Example 2, 1-[8-(4-Chloro-2-methylphenyl)-4-methyl-3,4-dihydro-2H-1,4-benzoxazin-2-yl]methanamine] |
| 70% | 122 nM | 13.1 nM | CN1CC(CN)Oc2c(-c3ccc(Cl)cc3Cl)cccc21 (racemic) [Example 3, 1-[8-(2,4-Dichlorophenyl)-4-methyl-3,4-dihydro-2H-1,4-benzoxazin-2-yl]methanamine] |
| 70% | 62 nM | 8.6 nM | CN1CC(CN)Oc2c(-c3ccccc3C(F)(F)F)cccc21 (racemic) [Example 4, 1-{4-Methyl-8-[2-(trifluoromethyl)phenyl]-3,4-dihydro-2H-1,4-benzoxazin-2-yl}methanamine] |
| 80% | 20 nM | 10.4 nM | COc1ccc(-c2cccc3c2OC(CN)CN3C)c(C)c1 (racemic) [Example 5, 1-[8-(4-Methoxy-2-methylphenyl)-4-methyl-3,4-dihydro-2H-1,4-benzoxazin-2-yl]methanamine] |
| 80% | 70 nM | 12.1 nM | COc1ccc(-c2cccc3c2OC(CN)CN3C)cc1 (racemic) [Example 6, 1-[8-(4-Methoxyphenyl)-4-methyl-3,4-dihydro-2H-1,4-benzoxazin-2-yl]methanamine] |
| 60% | 72 nM | 19.5 nM | CN1CC(CN)Oc2c(-c3ccccc3F)cccc21 (racemic) [Example 7, 1-[8-(2-Fluorophenyl)-4-methyl-3,4-dihydro-2H-1,4-benzoxazin-2-yl]methanamine] |
| 70% | 82 nM | 26.8 nM | Cc1ccccc1-c1cccc2c1OC(CN)CN2C (racemic) [Example 8, 1-[4-Methyl-8-(2-methylphenyl)-3,4-dihydro-2H-1,4-benzoxazin-2-yl]methanamine] |
| 70% | 5 nM | 0.9 nM | NCC1CNc2cc(F)cc(-c3c(Cl)cccc3Cl)c2O1 (racemic) [Example 10, 1-[8-(2,6-Dichlorophenyl)-6-fluoro-3,4-dihydro-2H-1,4-benzoxazin-2-yl]methanamine] |
| 70% | 37 nM | 9.2 nM | CN1CC(CN)Oc2c(-c3ccccc3Cl)cccc21 (racemic) [Example 11, 1-[8-(2-Chlorophenyl)-4-methyl-3,4-dihydro-2H-1,4-benzoxazin-2-yl]methanamine] |
| 40% | 166 nM | 22.7 nM | NCC1CN(CC2CC2)c2cccc(-c3ccccc3Cl)c2O1 (racemic) [Example 12, 1-[8-(2-Chlorophenyl)-4-(cyclopropylmethyl)-3,4-dihydro-2H-1,4-benzoxazin-2-yl]methanamine] |
| 70% | 131 nM | 12.8 nM | CN1CC(CN)Oc2c(-c3cc(Cl)ccc3Cl)cccc21 (racemic) [Example 13, 1-[8-(2,5-Dichlorophenyl)-4-methyl-3,4-dihydro-2H-1,4-benzoxazin-2-yl]methanamine] |
| 60% | 12 nM | 6.4 nM | NCC1CNc2cccc(-c3cc(Cl)ccc3Cl)c2O1 (racemic) [Example 14, 1-[8-(2,5-Dichlorophenyl)-3,4-dihydro-2H-1,4-benzoxazin-2-yl]methanamine] |
| 70% | 8 nM | 15.9 nM | NCC1CNc2cccc(-c3ccc(Cl)cc3Cl)c2O1 (racemic) [Example 15, 1-[8-(2,4-Dichlorophenyl)-3,4-dihydro-2H-1,4-benzoxazin-2-yl]methanamine] |
| 70% | 3 nM | 14 nM | NCC1CNc2cccc(-c3ccccc3Cl)c2O1 (racemic) [Example 16, 1-[8-(2-Chlorophenyl)-3,4-dihydro-2H-1,4-benzoxazin-2-yl]methanamine] |
| 72% | 101 nM | 31 nM | Cc1ccccc1-c1cccc2c1OC(CN)CN2 (racemic) [Example 17, 1-[8-(2-Methylphenyl)-3,4-dihydro-2H-1,4-benzoxazin-2-yl]methanamine] |
| 56% | 109 nM | 7.9 nM | NCC1CNc2cccc(-c3ccc(Cl)cc3C(F)(F)F)c2O1 (racemic) [Example 18, 1-{8-[4-Chloro-2-(trifluoromethyl)phenyl]-3,4-dihydro-2H-1,4-benzoxazin-2-yl}methanamine] |

| Emax (human 5-HT2C receptor [1]) | EC50 (human 5-HT2C receptor [1]) | Ki (human 5-HT2C receptor [2]) | Structure (SMILES) |
| --- | --- | --- | --- |
| 75% | 285 nM | 19.5 nM | Cc1cc(Cl)ccc1-c1cccc2c1OC(CN)CN2 (racemic) [Example 20, 1-[8-(4-chloro-2-methylphenyl)-3,4-dihydro-2H-1,4-benzoxazin-2-yl]methanamine] |
| 72% | 39 nM | 7.2 nM | NCC1CNc2cccc(-c3ccccc3C(F)(F)F)c2O1 (racemic) [Example 22, 1-{8-[2-(Trifluoromethyl)phenyl]-3,4-dihydro-2H-1,4-benzoxazin-2-yl}methanamine] |
| 79% | 367 nM | 39.5 nM | NCC1CNc2cccc(-c3ccc(C(F)(F)F)cc3C(F)(F)F)c2O1 (racemic) [Example 23, 1-{8-[2,4-Bis(trifluoromethyl)phenyl]-3,4-dihydro-2H-1,4-benzoxazin-2-yl}methanamine] |
| 75% | 25 nM | 14.9 nM | COc1ccc(-c2cccc3c2OC(CN)CN3)c(C)c1 (racemic) [Example 24, 1-[8-(4-Methoxy-2-methylphenyl)-3,4-dihydro-2H-1,4-benzoxazin-2-yl]methanamine] |
| 47% | 1290 nM | 53.2 nM | COc1ccc(-c2cc(Cl)cc3c2NC(CN)CO3)c(C)c1 (racemic) [Example 27, 1-[7-chloro-5-(4-methoxy-2-methylphenyl)-3,4-dihydro-2H-1,4-benzoxazin-3-yl]methanamine] |
| 60% | 876 nM | 30.5 nM | Cc1ccc(-c2cc(Cl)cc3c2NC(CN)CO3)c(C(F)(F)F)c1 (racemic) [Example 31, 1-{7-chloro-5-[4-methyl-2-(trifluoromethyl)phenyl]-3,4-dihydro-2H-1,4-benzoxazin-3-yl}methanamine] |
| 57% | 1010 nM | 29.5 nM | COc1ccc(-c2cc(Cl)cc3c2NC(CN)CO3)c(Cl)c1 (racemic) [Example 32, 1-[7-chloro-5-(2-chloro-4-methoxyphenyl)-3,4-dihydro-2H-1,4-benzoxazin-3-yl]methanamine] |
| 53% | 845 nM | 46.8 nM | NCC1COc2cc(Cl)cc(-c3ccccc3Cl)c2N1 (racemic) [Example 36, 1-[7-chloro-5-(2-chlorophenyl)-3,4-dihydro-2H-1,4-benzoxazin-3-yl]methanamine] |
| 54% | 331 nM | 19.3 nM | NCC1COc2cc(F)cc(-c3ccccc3C(F)(F)F)c2N1 (racemic) [Example 55, 1-{7-fluoro-5-[2-(trifluoromethyl)phenyl]-3,4-dihydro-2H-1,4-benzoxazin-3-yl}methanamine] |
| 59% | 138 nM | 36.9 nM | COc1ccc(-c2cc(F)cc3c2NC(CN)CO3)c(Cl)c1 (racemic) [Example 59, 1-[5-(2-chloro-4-methoxyphenyl)-7-fluoro-3,4-dihydro-2H-1,4-benzoxazin-3-yl]methanamine] |
| 60% | 6.87 nM | 14.8 nM | NC[C@H]1CNc2cccc(-c3ccccc3Cl)c2O1 [Example 39, 1-[(2S)-8-(2-chlorophenyl)-3,4-dihydro-2H-1,4-benzoxazin-2-yl]methanamine] |
| 45% | 44.3 nM | 60.5 nM | NC[C@@H]1CNc2cccc(-c3ccccc3Cl)c2O1 [Example 40, 1-[(2R)-8-(2-chlorophenyl)-3,4-dihydro-2H-1,4-benzoxazin-2-yl]methanamine] |
| 62% | 10.5 nM | 16.6 nM | NC[C@@H]1CNc2cccc(-c3ccccc3C(F)(F)F)c2O1 [Example 41, 1-{(2R)-8-[2-(trifluoromethyl)phenyl]-3,4-dihydro-2H-1,4-benzoxazin-2-yl}methanamine] |
| 80% | 2.74 nM | 35 nM | NC[C@H]1CNc2cccc(-c3ccccc3C(F)(F)F)c2O1 [Example 47, 1-{(2S)-8-[2-(trifluoromethyl)phenyl]-3,4-dihydro-2H-1,4-benzoxazin-2-yl}methanamine] |
| 74% | 0.72 nM | 33.3 nM | COc1ccc(-c2cccc3c2O[C@@H](CN)CN3)c(C)c1 [Example 50, 1-[(2S)-8-(4-methoxy-2-methylphenyl)-3,4-dihydro-2H-1,4-benzoxazin-2-yl]methanamine] |
| 78% | 0.17 nM | 9.05 nM | COc1ccc(-c2cccc3c2O[C@@H](CN)CN3)c(Cl)c1 [Example 52, 1-[(2S)-8-(2-chloro-4-methoxyphenyl)-3,4-dihydro-2H-1,4-benzoxazin-2-yl]methanamine] |
